{"source": "patent US8492103B2", "about": "(priority 2011, dated 2013)", "key": {"[1]": {"tested_on": "antibody isotypes IgG1, IgG2c, IgG2b, IgG3, IgM", "assay": "Measurement of antibody subclasses (isotypes) by ELISA in vaccinated mice after challenge", "assay_type": "in vivo, C57BL/6 mice", "details": "day 14 post challenge", "method": "(§1) Mice were immunized i.p., with two doses of 50 micrograms (0.02 μM) of each P28-1955-75 peptide or Ehrlichia Hsp6043-63 peptides conjugated to KLH 15 days apart (the first immunization with complete Freund's adjuvant and the second immunization with incomplete Freund's adjuvant) (3 mice per group). Thirty days after the first immunization mice were challenged intraperitoneally (i.p.) with a high dose of E. muris (˜1×10^4 bacterial genomes) and observed daily. Controls included unchallenged naive mice as well as unvaccinated mice injected with E. muris alone. Mice were sacrificed on days 7, 14 and 21 after Ehrlichia challenge, and spleen and liver were harvested and sera collected. The ehrlichial load in spleen and liver was determined by quantitative RT-PCR. Sera were assayed for determination of antibody titers.\nELISA was performed to measure the concentration of E. muris specific IgG subclass antibodies as described previously [Ismail et al. (2004) J Immunol 172:1786-1800; McBride et al. (2003) Infect Immun 71: 2516-2524). Briefly, the ELISA plates were coated with 50 μl of peptide (Ehrlichia Hsp6043-63) or recombinant P28-19 protein at a concentration of 4 μg/ml in PBS. Serum samples were diluted 1:100, and 100 μl of each sample was added to peptide-coated wells and incubated at 25° C. for 1 h. […] When peptides conjugated to KLH were used as a probe in ELISA, KLH was used as control and the results subtracted from positive values."}, "[2]": {"tested_on": "antibodies from dogs infected with E. chaffeensis", "assay_type": "binding", "details": "ELISA, dog sera"}, "[3]": {"tested_on": "IFN-γ-producing CD4+ T cells in the spleen", "assay": "Flow cytometry of peptide-specific IFN-γ-producing memory CD4+ T cells in splenocytes of E. muris-infected mice", "assay_type": "cell-based", "details": "day 45 after infection; splenocytes stimulated in vitro with the peptide for 18 h", "method": "Flow cytometry was used to determine if Ehrlichia Hsp6043-63 and P28-19 specific memory T cells are induced during E. muris infection.\nThe frequencies of antigen specific IFN-γ-producing T cells in the spleens were determined by flow cytometric analysis. […]\nAfter blocking Fc receptors with anti-Fc receptor mAbs (BD PharMingen, San Diego, Calif.) in FACS buffer (Dulbecco's PBS without Mg^2+ or Ca^2+ containing 1% fetal calf serum and 0.09% sodium azide) at 4° C. for 15 minutes, cells were labeled with fluorochrome-conjugated mAbs (BD Biosciences Pharmingen, San Diego, Calif.) specific for mouse CD3 (APC; clone 17A2), and CD4 (FITC; clone RM4-5), and CD8 (PerCP-Cy 5.5; clone 53-6.7). […] Data were analyzed using FCS Express software (De Novo Software, Los Angeles, Calif.). Dot plots were gated on CD3+ T cells and the frequencies and absolute numbers of antigen-specific IFN-γ-producing CD4+ T cells in the spleens were determined after subtracting the background staining of unstimulated cells in wells containing medium only."}, "[4]": {"tested_on": "Ehrlichia antibody from dogs infected with E. ewingii", "assay_type": "binding", "details": "ELISA; dog sera"}, "[5]": {"tested_on": "antibodies from mice infected with Orientia", "assay_type": "binding", "details": "ELISA; O. tsutsugamushi"}, "[6]": {"tested_on": "antibodies from dogs infected with E. canis", "assay_type": "binding", "details": "ELISA, dog sera"}, "[7]": {"tested_on": "E. muris", "assay": "Immunization and Ehrlichia muris challenge, ehrlichial load by quantitative real-time PCR", "assay_type": "in vivo, C57BL/6 mice", "details": "for protection against E. muris challenge as determined by bacterial load (quantitative real time-PCR): immunized mice; for bacterial load in vaccinated mice compared to unvaccinated controls: spleen and liver, days 7 and 14 after bacterial infection; for protection against Ehrlichia infection (overall statement): vaccinated mice challenged with E. muris", "method": "Since the P28-1955-75 and Ehrlichia Hsp6043-63 epitope peptides induced antibodies, the inventors reasoned that they also could provide protection against Ehrlichia thereby functioning as potential vaccine candidates. […] The spleen and liver were collected at different days after bacterial challenge and the bacterial copy number determined by quantitative real time PCR.\nas §1\nThe bacterial burdens in the organs were determined by quantitative real-time PCR. The Ehrlichia-specific dsb gene, which encodes a disulfide bond-forming protein (GenBank accession #AY236484 and AY236485), was selected as the target gene for amplification of E. muris. The sequences of the primers and probes and thermal cycle conditions were described previously (Stevenson et al. (2006) Infect Immun 74:4856-4864). PCR analyses were considered negative for ehrlichial DNA if the critical threshold values (Ct) exceeded 40 cycles. Expression of the ehrlichial load was normalized relative to the total DNA. Each sample was run in duplicate."}, "[8]": {"tested_on": "Ehrlichia-specific IgG antibody", "assay": "Antibody response by ELISA in vaccinated mice after E. muris challenge", "assay_type": "in vivo, C57BL/6 mice", "details": "for antibody levels in vaccinated mice, day 14 compared to day 7: after E. muris challenge; for IgG antibody response after E. muris challenge, vaccinated compared to unvaccinated E. muris-infected mice: blood on days 7 and 14", "method": "ELISA plates (Nunc, Maxisorp) were coated with P28-1 and incubated with sera of mice (1:100) vaccinated with Ehrlichia Hsp60 and challenged with E. muris. Following incubation with mice sera they were incubated with goat anti-mouse AP (1:500).\nImmunization with vaccines stimulates the immune system to produce a robust antibody response that can provide protection against pathogens. To determine the antibody responses against the Ehrlichia Hsp6043-63 peptide vaccine, blood was collected from vaccinated mice on days 7 and 14 and performed ELISA. […] However, there was no difference between the antibody levels in vaccinated mice between days 7 and 14. The Ehrlichia Hsp6043-63-specific antibody levels in infected unvaccinated mice were highest on day 14 compared to day 7 (FIG. 6A). To determine the antibody responses against the P28-1955-75 peptide vaccine, we collected blood from immunized mice on days 7 and 14 and subjected the samples to ELISA.\nas §1"}, "[9]": {"tested_on": "antibodies from mice infected with Rickettsia", "assay_type": "binding", "details": "ELISA; R. conorii, R. australis, R. akari"}, "[10]": {"tested_on": "Ehrlichia antibody in human serum", "assay_type": "binding", "details": "ELISA; humans infected with E. chaffeensis", "method": "ELISA plates (Nunc, Maxisorp) were coated with P28-1 and incubated with sera of humans (infected with E. chaffeensis) (1:100) (1 hour-RT) followed by incubation with goat anti-human AP (1:1500)."}}, "note": "Entries after “also recorded” stand apart in the source; their conditions may differ. Like-named read-outs stand apart in the source and are kept apart here.", "data": [{"substance": "akeeknataktfglkq (AKEEKNATAKTFGLKQ; listed as Ehrlichia muris) [P28-1955-75 peptide, peptide of E. muris outer membrane protein P28-19, amino acids 55-75]", "values": [{"measurement": "antibody isotype levels in vaccinated compared to unvaccinated mice after bacterial challenge", "setting": "[1]", "value": "higher levels of IgG1, IgG2b, IgG2c, and IgG3"}, {"measurement": "antibody isotype levels in vaccinated compared to unvaccinated mice after bacterial challenge", "setting": "[1]; listed as P28-1955-75", "value": "higher levels of IgG1, IgG2b, IgG3 and IgM"}, {"measurement": "reaction with / detection of antibodies from dogs infected with E. chaffeensis", "setting": "[2]", "value": "reacted"}, {"measurement": "reaction with / detection of antibodies from dogs infected with E. chaffeensis", "setting": "[2]; listed as P28 peptide", "value": "very sensitive"}, {"measurement": "peptide-specific IFN-γ-producing CD4+ T cells in spleen of E. muris-infected mice compared to naive uninfected mice", "setting": "[3]", "value": "significantly higher frequencies and absolute numbers; also recorded: higher frequency"}, {"measurement": "detection of Ehrlichia antibodies of dogs infected with E. ewingii", "setting": "[4]", "value": "very sensitive"}, {"measurement": "cross-reaction with antibodies from mice infected with Orientia", "setting": "[5]", "value": "did not react"}, {"measurement": "reaction with / detection of antibodies from dogs infected with E. canis", "setting": "[6]", "value": "reacted"}, {"measurement": "reaction with / detection of antibodies from dogs infected with E. canis", "setting": "[6]; listed as P28 peptide", "value": "very sensitive"}, {"measurement": "protection against E. muris challenge as determined by bacterial load (quantitative real time-PCR)", "setting": "[7]; days 7 and 14 after E. muris challenge", "value": "protected"}, {"measurement": "bacterial load in vaccinated mice compared to unvaccinated controls", "setting": "[7]", "value": "lower bacterial load"}, {"measurement": "protection against Ehrlichia infection (overall statement)", "setting": "[7]", "value": "provided protection"}, {"measurement": "antibody levels in vaccinated mice, day 14 compared to day 7", "setting": "[8]", "value": "higher on day 14"}, {"measurement": "IgG antibody response after E. muris challenge, vaccinated compared to unvaccinated E. muris-infected mice", "setting": "[8]", "value": "higher IgG antibody levels"}, {"measurement": "cross-reaction with antibodies from mice infected with Rickettsia", "setting": "[9]", "value": "did not react"}, {"measurement": "detection of Ehrlichia antibody in human serum", "setting": "[10]", "value": "sensitive"}]}, {"substance": "ygapeitkdgykviksikped (YGAPEITKDGYKVIKSIKPED; listed as Ehrlichia muris) [Ehrlichia Hsp6043-63 peptide]", "values": [{"measurement": "antibody isotype levels in vaccinated compared to unvaccinated mice after bacterial challenge", "setting": "[1]", "value": "higher levels of IgG1, IgG2c, IgG2b, and IgG3"}, {"measurement": "antibody isotype levels in vaccinated compared to unvaccinated mice after bacterial challenge", "setting": "[1]; listed as Ehrlichia Hsp6043-63", "value": "higher levels of IgG1, IgG2c, IgG2b, IgG3 and IgM"}, {"measurement": "reaction with / detection of antibodies from dogs infected with E. chaffeensis", "setting": "[2]", "value": "reacted"}, {"measurement": "peptide-specific IFN-γ-producing CD4+ T cells in spleen of E. muris-infected mice compared to naive uninfected mice", "setting": "[3]", "value": "significantly higher frequencies and absolute numbers; also recorded: higher frequency"}, {"measurement": "cross-reaction with antibodies from mice infected with Orientia", "setting": "[5]", "value": "did not react"}, {"measurement": "reaction with / detection of antibodies from dogs infected with E. canis", "setting": "[6]", "value": "reacted"}, {"measurement": "protection against E. muris challenge as determined by bacterial load (quantitative real time-PCR)", "setting": "[7]; day 14 after E. muris challenge", "value": "protected"}, {"measurement": "bacterial load in vaccinated mice compared to unvaccinated controls", "setting": "[7]", "value": "lower bacterial load"}, {"measurement": "protection against Ehrlichia infection (overall statement)", "setting": "[7]", "value": "provided protection"}, {"measurement": "antibody levels in vaccinated mice, day 14 compared to day 7", "setting": "[8]", "value": "no difference"}, {"measurement": "IgG antibody response after E. muris challenge, vaccinated compared to unvaccinated E. muris-infected mice", "setting": "[8]", "value": "higher IgG antibody levels"}, {"measurement": "cross-reaction with antibodies from mice infected with Rickettsia", "setting": "[9]", "value": "did not react"}]}]}
